Results as given in ChEMBL document CHEMBL1201862, “PubChem BioAssay data set” (2004).
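How tested: cells in 96-well plates exposed to compound for 48 hours at five concentrations. GI50 = concentration required for 50% inhibition of growth.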 The source made the active and inactive calls. Rule as the data show it: active = GI50 up to about 1.1 µM and inactive = higher.

How the values were obtained:
Assay in all cases: inhibition of tumour cell growth, NCI panel, 48 h
EKVX = test system: EKVX
HCC 2998 = test system: HCC 2998
HCT-116 = test system: HCT-116
HCT-15 = test system: HCT-15
HL-60 = test system: HL-60
K562 = test system: K562
LOX IMVI = test system: LOX IMVI
M14 = test system: M14
NCI-H460 = test system: NCI-H460
NCI-H522 = test system: NCI-H522
RPMI-8226 = test system: RPMI-8226
SK-MEL-28 = test system: SK-MEL-28
SK-OV-3 = test system: SK-OV-3
SN12C = test system: SN12C
SW-620 = test system: SW-620

With `Nc1c2ccccc2nc2nccnc12` the GI50 (EKVX) was 38.4 µM (inactive), the GI50 (HCC 2998) was > 100 µM (inactive) and the GI50 (HCT-116) was > 100 µM (inactive). For the same molecule, the GI50 (HCT-15) was over 100 µM, the GI50 (HL-60) was > 100 µM (inactive) and the GI50 (K562) was > 100 µM (inactive). The GI50 (LOX IMVI) was > 100 µM (inactive), the GI50 (M14) was > 100 µM (inactive) and the GI50 (NCI-H460) was > 100 µM (inactive). For the same molecule, the GI50 (NCI-H522) was > 100 µM (inactive), the GI50 (RPMI-8226) was > 100 µM (inactive) and the GI50 (SK-MEL-28) was > 100 µM (inactive). For the same molecule, the GI50 (SK-OV-3) was > 100 µM (inactive), the GI50 (SN12C) was > 100 µM (inactive) and the GI50 (SW-620) was > 100 µM (inactive).
For `Clc1cc(Cl)c2c(Cl)cc(Cl)c3c2c1N=S=N3`, the GI50 (EKVX) was > 100 µM (inactive), the GI50 (HCC 2998) was > 100 µM (inactive) and the GI50 (HCT-116) was > 100 µM (inactive). The GI50 (HCT-15) was 67.1 µM, the GI50 (HL-60) was 94.6 µM (inactive) and the GI50 (K562) was > 100 µM (inactive). The GI50 (LOX IMVI) was > 100 µM (inactive), the GI50 (M14) was > 100 µM (inactive) and the GI50 (NCI-H522) was > 100 µM (inactive). The GI50 (RPMI-8226) was > 100 µM (inactive), the GI50 (SK-MEL-28) was > 100 µM (inactive) and the GI50 (SK-OV-3) was > 100 µM (inactive). For the same molecule, the GI50 (SW-620) was > 100 µM (inactive).
For `Cc1cc2c(cc1C)[n+]([O-])c(C(=O)C/C(=N/NC(=O)c1ccccc1O)C(=O)Nc1ccccc1C(C)C)c(C)[n+]2[O-]`, the GI50 (EKVX) was > 100 µM (inactive), the GI50 (HCC 2998) was > 100 µM (inactive) and the GI50 (HCT-116) was > 100 µM (inactive). For the same molecule, the GI50 (HCT-15) was over 100 µM, the GI50 (HL-60) was 14.8 µM (inactive) and the GI50 (K562) was 31.6 µM (inactive). The GI50 (LOX IMVI) was 87.3 µM (inactive), the GI50 (M14) was > 100 µM (inactive) and the GI50 (NCI-H460) was 61.8 µM (inactive). The GI50 (NCI-H522) was 42.6 µM (inactive), the GI50 (SK-MEL-28) was > 100 µM (inactive) and the GI50 (SK-OV-3) was > 100 µM (inactive). The GI50 (SN12C) was > 100 µM (inactive) and the GI50 (SW-620) was 97.1 µM (inactive).
`COc1ccc(-c2oc3cc(O)c(OC)c(O)c3c(=O)c2OC2OC(CO)C(O)C(O)C2O)cc1` (centres undefined) was tested, and the GI50 (EKVX) was > 100 µM (inactive), the GI50 (HCC 2998) was > 100 µM (inactive) and the GI50 (HCT-116) was > 100 µM (inactive). For the same molecule, the GI50 (HCT-15) was over 100 µM, the GI50 (HL-60) was > 100 µM (inactive) and the GI50 (K562) was > 100 µM (inactive). For the same molecule, the GI50 (LOX IMVI) was > 100 µM (inactive), the GI50 (M14) was > 100 µM (inactive) and the GI50 (NCI-H460) was 43.3 µM (inactive). For the same molecule, the GI50 (RPMI-8226) was 21.2 µM (inactive), the GI50 (SK-MEL-28) was > 100 µM (inactive) and the GI50 (SK-OV-3) was > 100 µM (inactive). The GI50 (SN12C) was > 100 µM (inactive) and the GI50 (SW-620) was > 100 µM (inactive).
For `C[Si](C)(C)/C(Br)=C\CCN1C(=O)CCC1O` (centres undefined), the GI50 (EKVX) was > 100 µM (inactive), the GI50 (HCT-116) was > 100 µM (inactive) and the GI50 (HCT-15) was over 100 µM. The GI50 (K562) was > 100 µM (inactive), the GI50 (LOX IMVI) was > 100 µM (inactive) and the GI50 (M14) was > 100 µM (inactive). For the same molecule, the GI50 (NCI-H460) was > 100 µM (inactive), the GI50 (NCI-H522) was 71.9 µM (inactive) and the GI50 (RPMI-8226) was > 100 µM (inactive). For the same molecule, the GI50 (SK-MEL-28) was > 100 µM (inactive), the GI50 (SK-OV-3) was > 100 µM (inactive) and the GI50 (SN12C) was > 100 µM (inactive). For the same molecule, the GI50 (SW-620) was > 100 µM (inactive).
For `CCOC(=O)N1C2C=C(C)C(C3C(C)C(=O)N31)N(C(=O)c1ccccc1)O2` (centres undefined), the GI50 (EKVX) was > 100 µM (inactive), the GI50 (HCC 2998) was > 100 µM (inactive) and the GI50 (HCT-116) was > 100 µM (inactive). For the same molecule, the GI50 (HCT-15) was over 100 µM, the GI50 (HL-60) was > 100 µM (inactive) and the GI50 (K562) was > 100 µM (inactive). The GI50 (LOX IMVI) was > 100 µM (inactive), the GI50 (M14) was > 100 µM (inactive) and the GI50 (NCI-H460) was > 100 µM (inactive). The GI50 (RPMI-8226) was > 100 µM (inactive), the GI50 (SK-MEL-28) was > 100 µM (inactive) and the GI50 (SK-OV-3) was > 100 µM (inactive). For the same molecule, the GI50 (SN12C) was > 100 µM (inactive) and the GI50 (SW-620) was > 100 µM (inactive).
`C/C(CC(=O)Nc1ccc(NC(=O)/C(C)=N/NS(=O)(=O)c2ccc(C)cc2)cc1)=N\NS(=O)(=O)c1ccc(C)cc1` was tested, and the GI50 (EKVX) was > 100 µM (inactive), the GI50 (HCC 2998) was > 100 µM (inactive) and the GI50 (HCT-116) was > 100 µM (inactive). The GI50 (HCT-15) was over 100 µM, the GI50 (HL-60) was > 100 µM (inactive) and the GI50 (K562) was > 100 µM (inactive). The GI50 (LOX IMVI) was > 100 µM (inactive), the GI50 (M14) was > 100 µM (inactive) and the GI50 (NCI-H460) was > 100 µM (inactive). The GI50 (RPMI-8226) was > 100 µM (inactive), the GI50 (SK-MEL-28) was > 100 µM (inactive) and the GI50 (SK-OV-3) was > 100 µM (inactive). The GI50 (SN12C) was > 100 µM (inactive) and the GI50 (SW-620) was > 100 µM (inactive).
With `C[C@H]1CC[P+](C)(c2ccccc2)C1` (some centres undefined) the GI50 (EKVX) was > 100 µM (inactive), the GI50 (HCC 2998) was > 100 µM (inactive) and the GI50 (HCT-116) was > 100 µM (inactive). The GI50 (HCT-15) was over 100 µM, the GI50 (HL-60) was > 100 µM (inactive) and the GI50 (K562) was > 100 µM (inactive). The GI50 (LOX IMVI) was > 100 µM (inactive), the GI50 (M14) was > 100 µM (inactive) and the GI50 (NCI-H460) was > 100 µM (inactive). The GI50 (NCI-H522) was > 100 µM (inactive), the GI50 (RPMI-8226) was > 100 µM (inactive) and the GI50 (SK-MEL-28) was > 100 µM (inactive). The GI50 (SK-OV-3) was > 100 µM (inactive), the GI50 (SN12C) was > 100 µM (inactive) and the GI50 (SW-620) was > 100 µM (inactive).
`Brc1cc2c(cc1Br)CN(c1ccccc1)C2` was tested, and the GI50 (EKVX) was > 100 µM (inactive), the GI50 (HCC 2998) was > 100 µM (inactive) and the GI50 (HCT-116) was > 100 µM (inactive). The GI50 (HCT-15) was 53.8 µM, the GI50 (HL-60) was > 100 µM (inactive) and the GI50 (K562) was 80 µM (inactive). The GI50 (LOX IMVI) was > 100 µM (inactive), the GI50 (M14) was > 100 µM (inactive) and the GI50 (NCI-H460) was > 100 µM (inactive). The GI50 (RPMI-8226) was > 100 µM (inactive), the GI50 (SK-MEL-28) was > 100 µM (inactive) and the GI50 (SK-OV-3) was > 100 µM (inactive). The GI50 (SN12C) was > 100 µM (inactive) and the GI50 (SW-620) was > 100 µM (inactive).
`CCc1cc2c(O)c(c1)Cc1cc(CC)cc(c1O)Cc1cc(CC)cc(c1O)Cc1cc(CC)cc(c1O)Cc1cc(CC)cc(c1O)Cc1cc(CC)cc(c1O)Cc1cc(CC)cc(c1O)C2` was tested, and the GI50 (EKVX) was > 100 µM (inactive), the GI50 (HCC 2998) was > 100 µM (inactive) and the GI50 (HCT-116) was > 100 µM (inactive). The GI50 (HCT-15) was over 100 µM, the GI50 (HL-60) was > 100 µM (inactive) and the GI50 (K562) was > 10 µM (inactive). The GI50 (M14) was > 100 µM (inactive), the GI50 (NCI-H460) was > 100 µM (inactive) and the GI50 (NCI-H522) was > 100 µM (inactive). The GI50 (RPMI-8226) was > 100 µM (inactive), the GI50 (SK-MEL-28) was > 100 µM (inactive) and the GI50 (SN12C) was > 100 µM (inactive). For the same molecule, the GI50 (SW-620) was > 100 µM (inactive).
